Test results from US9283166B2, “Modulation of melanogenesis by modification of tyrosinase by palmitoylation” (ELC Management LLC, priority 2012, dated 2016).
pIC50: −log10 of the molar value.

Experiments:
tyrosinase [1] = assay: Total tyrosinase protein in NHEM by Western-blot; format: cell-based, human; conditions: 24 hours, various concentrations, vs. DMSO, normalized by tubulin
Protocol: (§1) Normal human epidermal melanocytes (NHEM) were incubated with 2-bromopalmitate (2-BP) for 24 hours, and total tyrosinase was determined by Western-blot (WB) using the mouse monoclonal anti-tyrosinase IgG antibody T311 (1:120 dilution). Total tyrosinase protein level was normalized by tubulin. Palmitoylated tyrosinase was evaluated by acyl-RAC and WB. The results shown in FIGS. 2A and 2B, are the average of three determinations SE. *p<0.05 vs. DMSO.

tyrosinase [2] = assay: Palmitoylated tyrosinase in NHEM by acyl-RAC and WB; format: cell-based, human; conditions: 24 hours, vs. DMSO
Protocol: as §1

NHEM = assay: Melanin content in NHEM; format: cell-based, human; conditions: 48 hours, various concentrations, vs. DMSO
Protocol: (§2) NHEM were treated with indicated concentrations of 2-BP for 48 hours. Melanin content (closed bar) and cell number (open bar) were measured. Values are the average of three determinations±SE. *p<0.05 vs. DMSO. Macroscopic views of cell pellet were taken by digital camera (FIG. 3A). Reconstructed human skin models (Asian type) were incubated with 25 μM 2-BP for 17 days. Eumelanin (EM) and pheomelanin (PM) contents were determined and calculated by following formula. EM=PTCA*25, PM=4−AHP*9. Values are the average of three determinations±SE.*p<0.05 vs. DMSO. Macroscopic views of a human skin model after 17 days were taken by digital camera (FIG. 3B).

[3] = tested on: Reconstructed human skin models (Asian type); assay: Melanin content in reconstructed human skin model; format: cell-based; conditions: 25 μM, 17 days, vs. DMSO
Protocol: as §2

Tyrosinase mRNA = Tyrosinase mRNA by real time quantitative PCR in NHEM; format: cell-based, human; conditions: 6 or 24 hours
Protocol: (§3) NHEM were cultured with 2-BP for 6 or 24 hours. Tyrosinase mRNA levels were analyzed by real time quantitative PCR. The results shown are the average of three determinations±SE.*p<0.05 vs. DMSO (FIG. 4A). NHEM were incubated with 5 μM 2-BP for 24 hours. Glycosidase digestion treatment by endo H and WB analysis on mature and immature form of tyrosinase were conducted by WB (FIG. 4B).

tyrosinase [4] = assay: Glycosylation of tyrosinase (endo H digestion and WB) in NHEM; format: cell-based, human; conditions: 5 μM, 24 hours
Protocol: as §3

tyrosinase [5] = assay: Degradation of tyrosinase in cycloheximide-treated NHEM (WB); format: cell-based, human; conditions: 4 hours
Protocol: NHEM were treated with 1 μg/ml cycloheximide, protein synthesis inhibitor, and with (▪) or without (⋄) 10 μM 2-BP for 4 hours. Tyrosinase levels were analyzed by WB using the mouse monoclonal anti-tyrosinase IgG antibody T311 (1:120 dilution). The band intensities of tyrosinase were normalized by the band intensities of Glyceraldehyde 3-phosphate dehydrogenase (GAPDH) as internal control for each condition. The results shown are the average of three determinations±SE.*p<0.05 vs. DMSO (FIGS. 5A and 5B).

tyrosinase [6] = assay: Ubiquitination of tyrosinase in NHEM (IP and WB); format: cell-based, human; conditions: 5 μM, 24 hours
Protocol: NHEM were treated with 5 μM 2-BP for 24 hours. Equal protein amounts of cell lysate were used for IP by tyrosinase, and the ubiquitinated (UB) level of tyrosinase was analyzed by WB using anti-UB antibody.

NHEM (Asian) = assay: Melanin synthesis in NHEM with PP2 or KA, with or without 2-BP; format: cell-based, human; conditions: 120 hours
Protocol: NHEM (Asian) were incubated for 120 hours in the presence of PP2, with or without 2-BP. […] Mean±S.E. (N=3)*p<0.05, vs. control. Kojic Acid (KA) was used as a positive control.

[7] = biological target: T1, Palmitoyl:protein thioesterase (PPT1) (Homo sapiens, UniProt P50897); conditions: cited from earlier work; for PPT1 inhibitory activity: result in words
T1 sequence (P50897 28-306): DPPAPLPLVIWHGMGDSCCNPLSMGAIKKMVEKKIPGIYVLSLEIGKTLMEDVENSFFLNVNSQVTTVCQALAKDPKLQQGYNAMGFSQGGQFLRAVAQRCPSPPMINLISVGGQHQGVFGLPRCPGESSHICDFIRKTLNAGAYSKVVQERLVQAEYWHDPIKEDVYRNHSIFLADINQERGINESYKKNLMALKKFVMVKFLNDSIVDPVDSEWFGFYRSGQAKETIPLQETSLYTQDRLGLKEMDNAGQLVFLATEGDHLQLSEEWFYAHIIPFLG

## CCCCCCCCCCCCCCC(Br)C(=O)O (stereo not drawn) [2-BP, 2-bromopalmitate]
Tyrosinase [1]
  total amount of tyrosinase protein per cell: statistically significant increase
Tyrosinase [2]
  amount of palmitoylated tyrosinase: decreased
NHEM
  melanin content per cell: statistically significant increase
[3]
  total melanin: eumelanin (EM) and pheomelanin (PM) content of the tissue: statistically significant increase
Tyrosinase mRNA
  tyrosinase mRNA expression: decrease
Tyrosinase [4]
  glycosylation of tyrosinase: no effect
Tyrosinase [5]; 10 μM with 1 μg/ml cycloheximide
  degradation of tyrosinase: suppresses the degradation of tyrosinase
Tyrosinase [6]
  ubiquitination of tyrosinase: no effect

## O=c1cc(CO)occ1O [Kojic acid, Kojic Acid]
NHEM (Asian); 2-BP-treated cells
  melanin synthesis: mildly inhibited melanin synthesis
NHEM (Asian); cells not treated with 2-BP
  melanin synthesis: mildly inhibited melanin synthesis

## C[C@@H]1C[C@@H]([C@H](O)CC2CC(=O)NC(=O)C2)C(=O)[C@@H](C)C1 [cycloheximide]
Tyrosinase [5]; 1 μg/ml cycloheximide
  tyrosinase levels: decreased

## AcGDap(Palm)GGR7
[7]
  PPT1 inhibitory activity: strong PPT1 inhibitors

## GGC(Pal) VKIKK [CS8]
[7]
  PPT1 inhibitory activity: comparable inhibitory activity to CS38

## NBD-αAGDap(Pal)VKIKK [CS38]
[7]; PPT1 inhibition, compared with Dap1
  inhibitor potency relative to Dap1: 3 fold
[7]; PPT1 inhibition
  pIC50: 5.70
